# Experimental data from the Kinase Knowledgebase extract (Sharma et al. 2016).
# Several values for one entry are separate records, joined by “and”; a condition that tells them apart may be missing. Equal entries are not always repeated.
# Molecular target: MAPK14 (human) (UniProt Q16539)
# Experiment: Cell-Based Assay
# Conditions: thp1
# MAPK14 (human), sequence (Q16539 whole entry, looked up): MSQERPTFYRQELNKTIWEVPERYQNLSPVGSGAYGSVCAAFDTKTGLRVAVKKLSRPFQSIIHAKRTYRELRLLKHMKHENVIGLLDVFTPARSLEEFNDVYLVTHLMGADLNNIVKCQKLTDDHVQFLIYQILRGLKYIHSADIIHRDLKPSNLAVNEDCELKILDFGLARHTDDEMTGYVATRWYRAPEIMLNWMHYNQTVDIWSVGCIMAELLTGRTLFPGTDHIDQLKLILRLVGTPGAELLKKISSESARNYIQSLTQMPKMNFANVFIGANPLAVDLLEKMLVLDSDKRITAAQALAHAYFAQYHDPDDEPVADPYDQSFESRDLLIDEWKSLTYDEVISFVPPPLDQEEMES
SMILES,EC50 [nM],Kd,Cp [µg/mL]
CC(C)(C)c1cc(NC(=O)NCCc2ccccc2)n(-c2ccccc2)n1,11000,260 nM,–
CC(C)(C)c1cc(NC(=O)Cc2ccc(Cl)cc2)n(-c2ccccc2)n1,–,> 900 nM,–
CC(C)(C)c1cc(NC(=O)NC2CCCCC2)n(-c2ccccc2)n1,3300,130 nM,–
Cc1ccc(-n2nc(C(C)(C)C)cc2NC(=O)Nc2ccccc2)cc1,180,3 nM and 21 nM,11
CN(C(=O)Nc1ccc(Cl)cc1)c1cc(C(C)(C)C)nn1-c1ccccc1,–,> 1000 nM,–
Cc1cc(NC(=O)Nc2ccccc2)n(-c2ccccc2)n1,–,> 7000 nM,–
CN(C(=O)Nc1cc(C(C)(C)C)nn1-c1ccccc1)c1ccc(Cl)cc1,–,7500 nM,–
CC(C)(C)c1cc(NC(=S)Nc2ccc(Cl)cc2)n(-c2ccccc2)n1,–,530 nM,–
CC(C)(c1ccccc1)c1cc(NC(=O)Nc2ccccc2)n(-c2ccccc2)n1,–,760 nM,–
CC(C)(C)c1cc(CC(=O)Nc2ccc(Cl)cc2)n(-c2ccccc2)n1,–,1500 nM,–
CC1(c2cc(NC(=O)Nc3ccccc3)n(-c3ccccc3)n2)CCOCC1,–,280 nM,–
Cc1ccc(-n2nc(C(C)(C)C)cc2NC(=O)Nc2ccccc2F)cc1,130,14 nM,51
CC(C)(C)c1cc(NC(=O)Nc2ccccc2)n(C2CCCCC2)n1,–,500 nM,–
CC1(c2cc(NC(=O)Nc3ccccc3)n(-c3ccccc3)n2)CCCCC1,–,22 nM,–
O=C(Nc1ccccc1)Nc1cc(C2CCCCC2)nn1-c1ccccc1,–,> 400 nM,–
CC(C)(C)c1cc(NC(=O)NC2CCc3ccccc32)n(-c2ccccc2)n1 (stereo not given),330,3 nM,–
CCC(C)(C)c1cc(NC(=O)Nc2ccccc2)n(-c2ccccc2)n1,–,12 nM,–
CC(C)(C)c1cc(NC(N)=O)n(-c2ccccc2)n1,–,> 7000 nM,–
CC(C)c1cc(NC(=O)Nc2ccccc2)n(-c2ccccc2)n1,–,330 nM,–
COCC(C)(C)c1cc(NC(=O)Nc2ccccc2)n(-c2ccccc2)n1,–,1400 nM,–
CC(C)(C)c1cc(NC(=O)NC2Cc3ccccc3C2)n(-c2ccccc2)n1,770,14 nM,–

# Now from value to compound, other results behind:
EC50 [nM],Kd,SMILES,Cp [µg/mL]
1000,8 nM,CC(C)(C)c1cc(NC(=O)Nc2ccc(Cl)cc2)n(-c2ccccc2)n1,–
250,5 nM,CC(C)(C)c1cc(NC(=O)Nc2cccc3ccccc23)n(-c2ccccc2)n1,–
370,–,Cc1ccc(-n2nc(C(C)(C)C)cc2NC(=O)Nc2cccc3ccccc23)cc1,–
120,4 nM,Cc1ccc(-n2nc(C(C)(C)C)cc2NC(=O)Nc2ccccc2)cc1C,–
380,2 nM,Cc1cccc(-n2nc(C(C)(C)C)cc2NC(=O)Nc2ccccc2)c1,–
–,1200 nM,CC(C)(C)c1cc(NC(=O)Nc2ccncc2)n(-c2ccccc2)n1,–
1000,100 nM,CC(C)(C)c1cc(NC(=O)Nc2cccc(N)c2)n(-c2ccccc2)n1,–
1600,31 nM,COc1ccc(-n2nc(C(C)(C)C)cc2NC(=O)Nc2ccccc2)cc1,–
960,19 nM,COc1cccc(-n2nc(C(C)(C)C)cc2NC(=O)Nc2ccccc2)c1,–
2300,200 nM,Cc1ccccc1-n1nc(C(C)(C)C)cc1NC(=O)Nc1ccccc1,–
–,400 nM,CC(C)(C)c1cc(NC(=O)Nc2ccccn2)n(-c2ccccc2)n1,–
820,21 nM,CC(C)(C)c1cc(NC(=O)Nc2ccccc2)n(-c2ccncc2)n1,–
410,3 nM,Cc1cccc(NC(=O)Nc2cc(C(C)(C)C)nn2-c2ccccc2)c1C,–
730,13 nM,CC(C)(C)c1cc(NC(=O)Nc2ccccc2)n(-c2ccccc2)n1,0.1
700,–,CC(C)(C)c1cc(NC(=O)Nc2ccc3ccccc3c2)n(-c2ccccc2)n1,–
–,318 nM,CC(C)(C)c1cc(NC(=O)Nc2ccc(N)cc2)n(-c2ccccc2)n1,–
1200,47 nM,CC(C)(C)c1cc(NC(=O)NCc2ccccc2)n(-c2ccccc2)n1,–
–,420 nM,CC(C)(C)c1cc(NC(=O)Nc2cccnc2)n(-c2ccccc2)n1,–
1900,8 nM,CC(C)(C)c1cc(NC(=O)Nc2ccccc2)n(-c2ccc3ccccc3c2)n1,–
630,7 nM,CC(C)(C)c1cc(NC(=O)Nc2ccccc2)n(-c2ccc(N)cc2)n1,–

# Same assay, conditions: thp1, concentration not given here
row,SMILES,inhibition [%]
1,Cc1ccc(-n2nc(C(C)(C)C)cc2NC(=O)Nc2ccccc2F)cc1,53
